IC50 data for 9 compounds are collected here from patent publication US20260132132A1, “3A,4,5,6-TETRAHYDRO-1 H-PYRAZOLO[3,4-C]PYRIDIN-7(7AH)-ONE DERIVATIVES AS FACTOR XIIA INHIBITORS” (KALVISTA PHARMACEUTICALS LIMITED, priority 2022, published 2026).

Each structure is given as a SMILES string.

Experiment [1] has as its target T1, Human Factor XIIa (hFXIIa) (Homo sapiens, UniProt P00748).
T1 construct: purchased Enzyme Research Laboratories
T1 sequence (P00748 373-615 limits assumed): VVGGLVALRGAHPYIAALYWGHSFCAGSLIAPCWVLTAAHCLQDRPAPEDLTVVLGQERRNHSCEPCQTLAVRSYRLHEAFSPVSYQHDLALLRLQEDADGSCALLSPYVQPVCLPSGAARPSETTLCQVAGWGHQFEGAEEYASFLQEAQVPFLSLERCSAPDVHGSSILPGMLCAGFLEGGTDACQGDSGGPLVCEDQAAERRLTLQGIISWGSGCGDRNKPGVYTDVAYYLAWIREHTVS
T1 sequence (P00748 20-372 partner limits assumed): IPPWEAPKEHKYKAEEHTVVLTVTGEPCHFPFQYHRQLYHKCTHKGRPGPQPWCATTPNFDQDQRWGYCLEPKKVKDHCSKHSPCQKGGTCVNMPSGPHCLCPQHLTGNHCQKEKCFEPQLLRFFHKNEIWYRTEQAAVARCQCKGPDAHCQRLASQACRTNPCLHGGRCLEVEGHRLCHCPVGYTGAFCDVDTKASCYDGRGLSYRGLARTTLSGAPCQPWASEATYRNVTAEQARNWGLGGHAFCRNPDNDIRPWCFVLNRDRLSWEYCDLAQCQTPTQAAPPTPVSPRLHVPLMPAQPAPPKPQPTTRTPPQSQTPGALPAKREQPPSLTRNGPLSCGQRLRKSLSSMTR
The experiment can be described thus: Determination of Human Factor XIIa (hFXIIa) inhibition, fluorogenic substrate IC50 assay. In kind it is biochemical. As to conditions: fluorogenic substrate H-DPro-Phe-Arg-AFC at Km, 25° C., read-out: Human FXIIa IC50. Here is the method:
Determination of Human Factor XIIa (hFXIIa) inhibition
The Km for the cleavage of the substrate by hFXIIa was determined by standard transformation of the Michaelis-Menten equation, with subsequent inhibition assays performed at substrate Km concentration.

For the next experiment, the target named is FXa (Homo sapiens, UniProt P00742). Nature of the experiment: Related protease inhibition: FXa, fluorogenic substrate. In kind it is biochemical. As to conditions: fluorogenic substrate at Km, 25° C.; H1-H3 = % activity at 40 μM. Here is the method: Human serine protease enzyme Plasma Kallikrein, KLK1, FXa, Plasmin, Thrombin and Trypsin were assayed for enzymatic activity using an appropriate fluorogenic substrate at Km concentration, FXIa at fixed substrate concentration of 100 μM and various concentrations of the test compound.
Sequence of FXa (P00742 235-488 limits assumed): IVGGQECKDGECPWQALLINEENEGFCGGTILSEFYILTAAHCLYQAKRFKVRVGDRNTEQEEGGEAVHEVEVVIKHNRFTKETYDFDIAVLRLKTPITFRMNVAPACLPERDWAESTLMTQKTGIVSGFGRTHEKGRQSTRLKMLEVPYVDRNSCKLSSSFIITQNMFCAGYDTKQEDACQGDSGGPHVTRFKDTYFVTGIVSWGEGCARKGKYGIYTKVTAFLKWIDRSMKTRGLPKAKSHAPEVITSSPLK
Sequence of FXa (P00742 41-179 partner limits assumed): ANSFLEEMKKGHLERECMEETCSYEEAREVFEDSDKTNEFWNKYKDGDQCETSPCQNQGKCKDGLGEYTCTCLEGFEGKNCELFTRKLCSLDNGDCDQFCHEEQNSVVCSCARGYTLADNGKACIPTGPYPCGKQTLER

As to `Cc1ccc(CNC(=O)c2nn(-c3cccc(Cl)c3)c3c2CCN(c2ccc4c(c2)C(=O)N(C)CC4)C3=O)nn1` [Example 1267, 1-(3-chlorophenyl)-6-(2-methyl-1-oxo-1,2,3,4-tetrahydroisoquinolin-7-yl)-N-((6-methylpyridazin-3-yl)methyl)-7-oxo-4,5,6,7-tetrahydro-1H-pyrazolo[3,4-c]pyridine-3-carboxamide], the 50% inhibitory concentration (IC50) in experiment [1] was 0.3 to 1 µM; at FXa it was more than 40 µM.

Regarding `Cc1cc(CNC(=O)c2nn(-c3cccc(Cl)c3)c3c2CCN(c2ccc4c(c2)C(=O)N(C(C)C)CCO4)C3=O)nn1C` [Example 1320, 1-(3-chlorophenyl)-N-((1,5-dimethyl-1H-pyrazol-3-yl)methyl)-6-(4-isopropyl-5-oxo-2,3,4,5-tetrahydrobenzo[f][1,4]oxazepin-7-yl)-7-oxo-4,5,6,7-tetrahydro-1H-pyrazolo[3,4-c]pyridine-3-carboxamide], the figures for the IC50 (in experiment [1]; at FXa) were 0.1 to 0.3 µM and more than 40 µM, respectively.

Take `CN1CCc2ccc(N3CCc4c(C(=O)NCCF)nn(-c5cccc(Cl)c5)c4C3=O)cc2C1=O` [Example 1384, 1-(3-chlorophenyl)-N-(2-fluoroethyl)-6-(2-methyl-1-oxo-1,2,3,4-tetrahydroisoquinolin-7-yl)-7-oxo-4,5,6,7-tetrahydro-1H-pyrazolo[3,4-c]pyridine-3-carboxamide]: the IC50 in experiment [1] is 0.3 to 1 µM; against FXa, more than 40 µM.

In the case of `C[C@H](NC(=O)c1nn(-c2cccc(Cl)c2)c2c1CCN(c1ccc3c(c1)C(=O)N(C)CC3)C2=O)C(=O)O` [Example 1391, (1-(3-chlorophenyl)-6-(2-methyl-1-oxo-1,2,3,4-tetrahydroisoquinolin-7-yl)-7-oxo-4,5,6,7-tetrahydro-1H-pyrazolo[3,4-c]pyridine-3-carbonyl)-L-alanine], the concentration for half-maximal inhibition (IC50) in experiment [1] is 0.3 to 1 µM; on FXa it was more than 40 µM.

On to `Cc1noc(C)c1CNC(=O)c1nn(-c2cccc(Cl)c2)c2c1CCN(c1ccc3c(c1)C(=O)N(C)CC3)C2=O` [Example 1185, 1-(3-chlorophenyl)-N-((3,5-dimethylisoxazol-4-yl)methyl)-6-(2-methyl-1-oxo-1,2,3,4-tetrahydroisoquinolin-7-yl)-7-oxo-4,5,6,7-tetrahydro-1H-pyrazolo[3,4-c]pyridine-3-carboxamide], for which the IC50 in experiment [1] was 0.3 to 1 µM; at FXa it was more than 40 µM.

Consider `O=C(NCc1cccnn1)c1nn(-c2cccc(Cl)c2)c2c1CCN(c1ccc3c(c1)CN(CCO)CC3)C2=O` [Example 1204, 1-(3-chlorophenyl)-6-(2-(2-hydroxyethyl)-1,2,3,4-tetrahydroisoquinolin-7-yl)-7-oxo-N-(pyridazin-3-ylmethyl)-4,5,6,7-tetrahydro-1H-pyrazolo[3,4-c]pyridine-3-carboxamide], for which the values for the IC50 (in experiment [1]; against FXa) were 0.1 to 0.3 µM and more than 40 µM, respectively.

On to `O=C(NCC1CC1)c1nn(-c2cccc(Cl)c2)c2c1CCN(c1cccc(CN3CCCCC3)c1)C2=O` [Example 1002, 1-(3-chlorophenyl)-N-(cyclopropylmethyl)-7-oxo-6-(3-(piperidin-1-ylmethyl)phenyl)-4,5,6,7-tetrahydro-1H-pyrazolo[3,4-c]pyridine-3-carboxamide], for which the IC50 in experiment [1] is 0.3 to 1 µM; against FXa it was more than 10 µM.

On to `N#Cc1nn(-c2cccc(Cl)c2)c2c(=O)n(-c3ccc4c(c3)CN(CCO)CC4)cnc12` [Example 3013, 1-(3-chlorophenyl)-6-(2-(2-hydroxyethyl)-1,2,3,4-tetrahydroisoquinolin-7-yl)-7-oxo-6,7-dihydro-1H-pyrazolo[4,3-d]pyrimidine-3-carbonitrile], for which the IC50 was 0.1 to 0.3 µM in experiment [1] and 0.3 to 1 µM against FXa.

In the case of `CN1CCc2ccc(N3CCc4c(COC5(C)COC5)nn(-c5cccc(Cl)c5)c4C3=O)cc2C1=O` [Example 1354, 7-(1-(3-chlorophenyl)-3-(((3-methyloxetan-3-yl)oxy)methyl)-7-oxo-1,4,5,7-tetrahydro-6H-pyrazolo[3,4-c]pyridin-6-yl)-2-methyl-3,4-dihydroisoquinolin-1 (2H)-one], the 50% inhibitory concentration (IC50) in experiment [1] was 1 to 3 µM; against FXa it was 10 to 40 µM.

Broadly, the IC50 is the point on the concentration scale where inhibition reaches its midpoint.
